Values quoted from earlier work, collected in patent US20120129799A1, “STABLE COMPOSITION OF READY-TO-USE GEMCITABINE INJECTION” (ASTRON RESEARCH LIMITED, priority 2009, published 2012).
“Also recorded” adds a separate entry of the source.

Legend:
[1] = higher pH (5.0 to 9.0)

- degradation products obtained (aqueous solution, pH 3.2 (sodium acetate), thermally stressed conditions): four significant degradation products
- chemical stability of aqueous solution (aqueous solution, pH of approximately 3.0): not chemically stable
- stability in aqueous solution (higher pH (5.0 to 9.0)): remains stable
- stability (lower pH): poor stability
SMILES: Nc1ccn([C@@H]2O[C@H](CO)[C@@H](O)C2(F)F)c(=O)n1 [Gemcitabine, 1-(2-oxo-4-amino-1,2-dihydropyrimidin-1-yl)-2-deoxy-2,2-difluororibose]
- aqueous solubility [1]: low aqueous solubility; also recorded: very low solubility
